What all share (assay type): in vivo, pig
Assay [1] is described as follows: Faecal pH, dry matter and faeces (diarrhoea) scoring, Example 4. The text has this: (§1) One hundred and ninety two piglets were weaned at twenty four days of age, with an initial live weight of 6.4±0.785 Kg and assigned to one of four dietary treatments or 21 days post weaning. The dietary treatments consisted of (T1) basal diet, (T2) basal diet with 300 ppm LAM, (T3) basal diet with 236 ppm FUC, (T4) Basal diet with 300 ppm LAM and 236 ppm FUC. Diets were formulated to have identical concentrations of digestible energy (DE) (16 MJ/Kg) and ileal digestible lysine (14 g/Kg). All amino acid requirements were met relative to lysine (Close, 1994). Chromium III oxide was added to the diets for determination of nutrient digestibility. The LAM and FUC were derived from Laminaria hyperborea.
(§2) Piglets were housed in groups of 4 and offered feed twice daily. Water was supplied ad-libitum. Any pig displaying symptoms of illness was treated appropriately and recorded. Pigs were weighed on day 0 (day of weaning), 7, 14 and 21. Feed intake was monitored weekly. Fresh faecal samples were taken on day 10 and were analysed for E. coli and Lactobacilli concentrations. Faeces samples were collected from each pen on day 12-17 and were retained for chemical analysis. Fresh faecal samples were removed on day 14 and were frozen and retained for volatile fatty acid analysis. Fresh faecal samples were taken on day 17 for pH determination.
A scoring system was applied to indicate its presence and severity. The following scoring system was used: 1=hard, 2=slightly soft, 3=soft, partially formed, 4=loose, semi-liquid and 5=watery, mucous-like.

The test system of a further assay is Escherichia coli. The assay is described as follows: Faecal microbiology, Example 4. Conditions: LAM diets (300 ppm) v no LAM supplementation (7.84).
Excerpt: as §1, §2
A sample was serially diluted (1:10) in 9.0 ml aliquots of maximum recovery diluent (MRD, Oxoid, Basingstoke, UK), and spread plated (0.1 ml aliquots) onto selective agars. Lactobacillus spp. were isolated on de Man, Rogosa, Sharp agar (MRS, Oxoid) with overnight incubation at 37° C. in 5% CO2. The API 50 CHL (BioMerieux, France) kit was used to confirm suspect Lactobacilli spp. E. coli species were isolated on MacConkey agar (Oxoid), following aerobic incubation at 37° C. for 18-24 hours. Suspect colonies were confirmed with API 20E (BioMerieux, France).

Assay [2] can be described thus: Animal performance and nutrient digestibility, Example 5. Conditions: increasing LAM 0, 300, 600 ppm, 21 days. The text has this:
21 pigs with an initial weight of 17.9±2.2 Kg were assigned to one of the 3 dietary treatments: (T1) control; (T2) basal diet+300 ppm LAM; (T3) basal diet+600 ppm LAM. Experimental feeding continued for 21 days ad libitum. Diets were formulated to have similar digestible energy (DE) (14.4 MJ/Kg) and ileal digestible lysine (12.5 g/Kg).

The test system of another assay is Bifidobacteria. Kind of assay: Microbial analysis of ileum and colon digesta, Example 5. Conditions: ileum; LAM 0-600 ppm. The source says: (§3) 21 pigs with an initial weight of 17.9±2.2 Kg were assigned to one of the 3 dietary treatments: (T1) control; (T2) basal diet+300 ppm LAM; (T3) basal diet+600 ppm LAM. Experimental feeding continued for 21 days ad libitum. Diets were formulated to have similar digestible energy (DE) (14.4 MJ/Kg) and ileal digestible lysine (12.5 g/Kg). Post-slaughter, digestive tract was removed by dissection and digesta was removed from the ileum. Each digesta sample was serially diluted in maximum recovery diluent (MRD, Oxoid, Basingstoke, UK), and spread plated onto selective agars. Bifidobacteria, Lactobacilli and Enterobacteria species were isolated according to the methods described by Pierce et al. (2005). Digesta samples used to measure VFA concentration were collected from the caecum and the same location in the ileum and colon. VFA analysis was performed using gas liquid chromatography (GLC) according to the method described by Pierce et al., (2005).

A further assay relates to Enterobacteriaceae. Described as above.
Excerpt: as §3

The test system of the next assay is Lactobacilli. The description is as above. The settings on record: ileum; LAM 0-600 ppm.
Excerpt: as §3

Regarding laminarin, in assay [1] (LAM supplemented diets (300 ppm) v unsupplemented (26.24), in % (unit assumed)), the “faecal DM content” value amounted to 28.64. The faecal score result in assay [1] (days 0-21, compared to the basal diet) is “no effect”; in assay [1] (days 7-14, scale 1 (hard) to 5 (watery), LAM supplemented diets v 2.57), 2.05. In addition, in the assay with Escherichia coli, the “faecal E. coli population” value is on record as 7.22. Besides, in assay [2], the “nutrient digestibility coefficients (DM, OM, ash, N or GE)” value is “no effect”. Further, the “performance (food intake, daily gain or food conversion ratio)” value in assay [2] was “no effect”. Further, the Bifidobacteria populations result with Bifidobacteria was “no effect”. Further, in the assay with Enterobacteriaceae (colon, LAM from Laminaria digitata, 300 and 600 ppm), the Enterobacteriaceae entry is “decrease”. Also, the Enterobacteriaceae populations result in the assay on Enterobacteriaceae (ileum, LAM 0-600 ppm) is “no effect”. The Lactobacilli populations result in the assay with Lactobacilli is given as “no effect”.

(Values after US9241951B2, “Of gastrointestinal health, immunity and performance by dietary intervention” (BIOATLANTIS LTD, priority 2009, dated 2016).)
